# Test system: rodent lifetime carcinogenesis bioassay, tumor incidence TD50
# Experiment: chronic cancer bioassays in animals – CPDB, compiled studies (AID 1745844)
# Conditions: by gavage
smiles,measurement,setting,value
CC(C)=CCl,TD50,"mouse, strain B6C3F1, females, site: Harderian gland, lesion: papillary adenoma, dosed 102 weeks, study length 103 weeks",146 mg/kg/day
same,TD50,"mouse, strain B6C3F1, females, site: any site (literature study), lesion: several types, types named in the paper, dosed 102 weeks, study length 103 weeks",14.6 mg/kg/day
same,TD50,"mouse, strain B6C3F1, females, site: forestomach, lesion: adenosquamous carcinoma + carcinoma, NOS + squamous-cell carcinoma + squamous-cell papilloma, dosed 102 weeks, study length 103 weeks",14.3 mg/kg/day
same,TD50,"mouse, strain B6C3F1, females, site: forestomach, lesion: adenosquamous carcinoma + carcinoma, NOS + squamous-cell carcinoma, dosed 102 weeks, study length 103 weeks",14.3 mg/kg/day
same,TD50,"mouse, strain B6C3F1, females, site: forestomach, lesion: squamous-cell carcinoma + squamous-cell papilloma, dosed 102 weeks, study length 103 weeks",14.4 mg/kg/day
same,TD50,"mouse, strain B6C3F1, females, site: forestomach, lesion: squamous-cell carcinoma, dosed 102 weeks, study length 103 weeks",14.4 mg/kg/day
same,TD50,"mouse, strain B6C3F1, females, site: forestomach, lesion: squamous-cell papilloma, dosed 102 weeks, study length 103 weeks",373 mg/kg/day
same,TD50,"mouse, strain B6C3F1, females, site: jejunum + liver + multiple organs + spleen, lesion: malignant lymphoma, lymphocytic type + malignant lymphoma, mixed type + malignant lymphoma, histiocytic type, dosed 102 weeks, study length 103 weeks",124 mg/kg/day
same,TD50,"mouse, strain B6C3F1, females, site: liver + multiple organs + spleen, lesion: malignant lymphoma, mixed type, dosed 102 weeks, study length 103 weeks",229 mg/kg/day
same,TD50,"mouse, strain B6C3F1, females, site: liver, lesion: hepatocellular adenoma + hepatocellular carcinoma + neoplastic nodule, dosed 102 weeks, study length 103 weeks",150 mg/kg/day
same,TD50,"mouse, strain B6C3F1, females, site: liver, lesion: hepatocellular adenoma, dosed 102 weeks, study length 103 weeks",150 mg/kg/day
same,TD50,"mouse, strain B6C3F1, females, site: lung, lesion: alveolar/bronchiolar adenoma + alveolar/bronchiolar carcinoma, dosed 102 weeks, study length 103 weeks",186 mg/kg/day
same,TD50,"mouse, strain B6C3F1, females, site: lung, lesion: alveolar/bronchiolar adenoma, dosed 102 weeks, study length 103 weeks",235 mg/kg/day
same,TD50,"mouse, strain B6C3F1, males, site: Harderian gland, lesion: papillary adenoma, dosed 102 weeks, study length 103 weeks",149 mg/kg/day
same,TD50,"mouse, strain B6C3F1, males, site: any site (literature study), lesion: several types, types named in the paper, dosed 102 weeks, study length 103 weeks",13.9 mg/kg/day
same,TD50,"mouse, strain B6C3F1, males, site: duodenum + lymph node + multiple organs + spleen, lesion: malignant lymphoma, mixed type + malignant lymphoma, NOS + granulocytic leukemia + malignant lymphoma, histiocytic type + malign, dosed 102 weeks, study length 103 weeks",148 mg/kg/day
same,TD50,"mouse, strain B6C3F1, males, site: duodenum + lymph node + multiple organs + spleen, lesion: malignant lymphoma, mixed type + malignant lymphoma, NOS + malignant lymphoma, histiocytic type + malignant lymphoma, lymphocy, dosed 102 weeks, study length 103 weeks",154 mg/kg/day
same,TD50,"mouse, strain B6C3F1, males, site: forestomach + preputial gland, lesion: squamous-cell carcinoma + squamous-cell papilloma, dosed 102 weeks, study length 103 weeks",15.2 mg/kg/day
same,TD50,"mouse, strain B6C3F1, males, site: forestomach, lesion: squamous-cell carcinoma + squamous-cell papilloma, dosed 102 weeks, study length 103 weeks",15.5 mg/kg/day
same,TD50,"mouse, strain B6C3F1, males, site: forestomach, lesion: squamous-cell carcinoma, dosed 102 weeks, study length 103 weeks",17.2 mg/kg/day
same,TD50,"mouse, strain B6C3F1, males, site: forestomach, lesion: squamous-cell papilloma, dosed 102 weeks, study length 103 weeks",195 mg/kg/day
same,TD50,"mouse, strain B6C3F1, males, site: liver + mesenteric lymph node + preputial gland + spleen, lesion: hemangioma + hemangiosarcoma, dosed 102 weeks, study length 103 weeks",221 mg/kg/day
same,TD50,"mouse, strain B6C3F1, males, site: liver + spleen, lesion: hemangiosarcoma, dosed 102 weeks, study length 103 weeks",375 mg/kg/day
same,TD50,"mouse, strain B6C3F1, males, site: liver, lesion: hepatocellular adenoma + hepatocellular carcinoma + neoplastic nodule, dosed 102 weeks, study length 103 weeks",48.8 mg/kg/day
same,TD50,"mouse, strain B6C3F1, males, site: liver, lesion: hepatocellular adenoma + hepatocellular carcinoma, dosed 102 weeks, study length 103 weeks",48.8 mg/kg/day
same,TD50,"mouse, strain B6C3F1, males, site: liver, lesion: hepatocellular adenoma, dosed 102 weeks, study length 103 weeks",87.1 mg/kg/day
same,TD50,"mouse, strain B6C3F1, males, site: liver, lesion: hepatocellular carcinoma, dosed 102 weeks, study length 103 weeks",104 mg/kg/day
same,TD50,"mouse, strain B6C3F1, males, site: lung, lesion: alveolar/bronchiolar adenoma + alveolar/bronchiolar carcinoma, dosed 102 weeks, study length 103 weeks",87.7 mg/kg/day
same,TD50,"mouse, strain B6C3F1, males, site: lung, lesion: alveolar/bronchiolar adenoma, dosed 102 weeks, study length 103 weeks",117 mg/kg/day
same,TD50,"mouse, strain B6C3F1, males, site: lung, lesion: alveolar/bronchiolar carcinoma, dosed 102 weeks, study length 103 weeks",199 mg/kg/day
same,TD50,"mouse, strain B6C3F1, males, site: preputial gland, lesion: squamous-cell carcinoma, dosed 102 weeks, study length 103 weeks",90.7 mg/kg/day
same,TD50,"rat, strain Fischer 344, females, site: any site (literature study), lesion: several types, types named in the paper, dosed 100 weeks, study length 104 weeks",11.9 mg/kg/day
same,TD50,"rat, strain Fischer 344, females, site: esophagus + forestomach + gingiva + nasal cavity + oral mucosa + palate + tongue, lesion: squamous-cell carcinoma + squamous-cell papilloma + adenocarcinoma + adenoma, NOS + carcinoma, NOS, dosed 100 weeks, study length 104 weeks",25.3 mg/kg/day
same,TD50,"rat, strain Fischer 344, females, site: esophagus, lesion: squamous-cell carcinoma, dosed 100 weeks, study length 104 weeks",250 mg/kg/day
same,TD50,"rat, strain Fischer 344, females, site: forestomach, lesion: squamous-cell carcinoma + squamous-cell papilloma, dosed 100 weeks, study length 104 weeks",95.2 mg/kg/day
same,TD50,"rat, strain Fischer 344, females, site: forestomach, lesion: squamous-cell carcinoma, dosed 100 weeks, study length 104 weeks",191 mg/kg/day
same,TD50,"rat, strain Fischer 344, females, site: forestomach, lesion: squamous-cell papilloma, dosed 100 weeks, study length 104 weeks",209 mg/kg/day
same,TD50,"rat, strain Fischer 344, females, site: gingiva + oral mucosa + palate + tongue, lesion: squamous-cell carcinoma + squamous-cell papilloma, dosed 100 weeks, study length 104 weeks",318 mg/kg/day
same,TD50,"rat, strain Fischer 344, females, site: lung, lesion: alveolar/bronchiolar adenoma + alveolar/bronchiolar carcinoma, dosed 100 weeks, study length 104 weeks",218 mg/kg/day
same,TD50,"rat, strain Fischer 344, females, site: mammary gland, lesion: adenocarcinoma + fibroadenoma, dosed 100 weeks, study length 104 weeks",36.7 mg/kg/day
same,TD50,"rat, strain Fischer 344, females, site: mammary gland, lesion: fibroadenoma, dosed 100 weeks, study length 104 weeks",38.3 mg/kg/day
same,TD50,"rat, strain Fischer 344, females, site: multiple organs, lesion: lymphocytic leukemia + mononuclear-cell leukemia, dosed 100 weeks, study length 104 weeks",170 mg/kg/day
same,TD50,"rat, strain Fischer 344, females, site: multiple organs, lesion: mononuclear-cell leukemia, dosed 100 weeks, study length 104 weeks",202 mg/kg/day
same,TD50,"rat, strain Fischer 344, females, site: nasal cavity, lesion: adenocarcinoma + adenoma, NOS + carcinoma, NOS + squamous-cell carcinoma, dosed 100 weeks, study length 104 weeks",34.3 mg/kg/day
same,TD50,"rat, strain Fischer 344, females, site: nasal cavity, lesion: adenocarcinoma + adenoma, NOS, dosed 100 weeks, study length 104 weeks",143 mg/kg/day
same,TD50,"rat, strain Fischer 344, females, site: nasal cavity, lesion: adenocarcinoma + carcinoma, NOS + squamous-cell carcinoma, dosed 100 weeks, study length 104 weeks",35.2 mg/kg/day
same,TD50,"rat, strain Fischer 344, females, site: nasal cavity, lesion: adenocarcinoma, dosed 100 weeks, study length 104 weeks",159 mg/kg/day
same,TD50,"rat, strain Fischer 344, females, site: nasal cavity, lesion: carcinoma, NOS + squamous-cell carcinoma, dosed 100 weeks, study length 104 weeks",46.8 mg/kg/day
same,TD50,"rat, strain Fischer 344, females, site: nasal cavity, lesion: carcinoma, NOS, dosed 100 weeks, study length 104 weeks",52.7 mg/kg/day
same,TD50,"rat, strain Fischer 344, females, site: oral mucosa + palate, lesion: squamous-cell papilloma, dosed 100 weeks, study length 104 weeks",1010 mg/kg/day
same,TD50,"rat, strain Fischer 344, females, site: oral mucosa, lesion: squamous-cell papilloma, dosed 100 weeks, study length 104 weeks",1220 mg/kg/day
same,TD50,"rat, strain Fischer 344, females, site: pituitary gland, anterior, lesion: adenoma, NOS + chromophobe adenoma + chromophobe carcinoma, dosed 100 weeks, study length 104 weeks",68 mg/kg/day
same,TD50,"rat, strain Fischer 344, females, site: pituitary gland, anterior, lesion: adenoma, NOS + chromophobe adenoma, dosed 100 weeks, study length 104 weeks",101 mg/kg/day
same,TD50,"rat, strain Fischer 344, females, site: pituitary gland, anterior, lesion: chromophobe adenoma + chromophobe carcinoma, dosed 100 weeks, study length 104 weeks",71.7 mg/kg/day
same,TD50,"rat, strain Fischer 344, females, site: pituitary gland, anterior, lesion: chromophobe adenoma, dosed 100 weeks, study length 104 weeks",109 mg/kg/day
same,TD50,"rat, strain Fischer 344, females, site: pituitary gland, anterior, lesion: chromophobe carcinoma, dosed 100 weeks, study length 104 weeks",222 mg/kg/day
same,TD50,"rat, strain Fischer 344, females, site: thyroid gland, lesion: c-cell adenoma, dosed 100 weeks, study length 104 weeks",225 mg/kg/day
same,TD50,"rat, strain Fischer 344, females, site: thyroid gland, lesion: follicular-cell adenoma + follicular-cell carcinoma, dosed 100 weeks, study length 104 weeks",131 mg/kg/day
same,TD50,"rat, strain Fischer 344, females, site: thyroid gland, lesion: follicular-cell carcinoma, dosed 100 weeks, study length 104 weeks",136 mg/kg/day
same,TD50,"rat, strain Fischer 344, females, site: uterus, lesion: endometrial stromal polyp + endometrial stromal sarcoma, dosed 100 weeks, study length 104 weeks",84.9 mg/kg/day
same,TD50,"rat, strain Fischer 344, females, site: uterus, lesion: endometrial stromal polyp, dosed 100 weeks, study length 104 weeks",91.9 mg/kg/day
same,TD50,"rat, strain Fischer 344, males, site: adrenal gland + adrenal medulla, lesion: pheochromocytoma, malignant + pheochromocytoma, dosed 94 weeks, study length 104 weeks",86.7 mg/kg/day
same,TD50,"rat, strain Fischer 344, males, site: any site (literature study), lesion: several types, types named in the paper, dosed 94 weeks, study length 104 weeks",10.2 mg/kg/day
same,TD50,"rat, strain Fischer 344, males, site: esophagus + forestomach + lip + nasal cavity + palate + tongue, lesion: squamous-cell carcinoma + squamous-cell papilloma + adenocarcinoma + carcinoma, NOS, dosed 94 weeks, study length 104 weeks",17.5 mg/kg/day
same,TD50,"rat, strain Fischer 344, males, site: esophagus, lesion: squamous-cell carcinoma + squamous-cell papilloma, dosed 94 weeks, study length 104 weeks",81.6 mg/kg/day
same,TD50,"rat, strain Fischer 344, males, site: esophagus, lesion: squamous-cell carcinoma, dosed 94 weeks, study length 104 weeks",143 mg/kg/day
same,TD50,"rat, strain Fischer 344, males, site: esophagus, lesion: squamous-cell papilloma, dosed 94 weeks, study length 104 weeks",218 mg/kg/day
same,TD50,"rat, strain Fischer 344, males, site: forestomach, lesion: squamous-cell carcinoma + squamous-cell papilloma, dosed 94 weeks, study length 104 weeks",41.6 mg/kg/day
same,TD50,"rat, strain Fischer 344, males, site: forestomach, lesion: squamous-cell carcinoma, dosed 94 weeks, study length 104 weeks",135 mg/kg/day
same,TD50,"rat, strain Fischer 344, males, site: forestomach, lesion: squamous-cell papilloma, dosed 94 weeks, study length 104 weeks",67.1 mg/kg/day
same,TD50,"rat, strain Fischer 344, males, site: lip + palate + tongue, lesion: squamous-cell carcinoma + squamous-cell papilloma, dosed 94 weeks, study length 104 weeks",163 mg/kg/day
same,TD50,"rat, strain Fischer 344, males, site: lip + palate + tongue, lesion: squamous-cell carcinoma, dosed 94 weeks, study length 104 weeks",178 mg/kg/day
same,TD50,"rat, strain Fischer 344, males, site: liver, lesion: hepatocellular adenoma + hepatocellular carcinoma + neoplastic nodule, dosed 94 weeks, study length 104 weeks",1030 mg/kg/day
same,TD50,"rat, strain Fischer 344, males, site: multiple organs, lesion: mononuclear-cell leukemia, dosed 94 weeks, study length 104 weeks",128 mg/kg/day
same,TD50,"rat, strain Fischer 344, males, site: nasal cavity, lesion: adenocarcinoma + carcinoma, NOS + squamous-cell carcinoma, dosed 94 weeks, study length 104 weeks",29.7 mg/kg/day
same,TD50,"rat, strain Fischer 344, males, site: nasal cavity, lesion: adenocarcinoma, NOS, dosed 94 weeks, study length 104 weeks",70.1 mg/kg/day
same,TD50,"rat, strain Fischer 344, males, site: nasal cavity, lesion: carcinoma, NOS + squamous-cell carcinoma, dosed 94 weeks, study length 104 weeks",52.1 mg/kg/day
same,TD50,"rat, strain Fischer 344, males, site: nasal cavity, lesion: carcinoma, NOS, dosed 94 weeks, study length 104 weeks",63.4 mg/kg/day
same,TD50,"rat, strain Fischer 344, males, site: nasal cavity, lesion: squamous-cell carcinoma, dosed 94 weeks, study length 104 weeks",297 mg/kg/day
same,TD50,"rat, strain Fischer 344, males, site: testis, lesion: interstitial-cell tumor, dosed 94 weeks, study length 104 weeks",13.9 mg/kg/day
same,TD50,"rat, strain Fischer 344, males, site: tongue, lesion: squamous-cell carcinoma + squamous-cell papilloma, dosed 94 weeks, study length 104 weeks",415 mg/kg/day
same,TD50,"rat, strain Fischer 344, males, site: tongue, lesion: squamous-cell carcinoma, dosed 94 weeks, study length 104 weeks",469 mg/kg/day

# Source: PubChem BioAssay AID1745844 (Carcinogenic Potency Database (CPDB), 2022)
